The text below walks through data of article PMC5589751, “Synthesis, high-throughput screening and pharmacological characterization of β–lactam derivatives as TRPM8 antagonists” (Scientific Reports, 2017).

One test addresses T1, TRPM8 (Rattus norvegicus, UniProt Q8R455).
T1 construct: expressed in transfected cells
The test can be described thus: Whole-cell patch clamp in TRPM8-expressing HEK-CR1 cells (menthol, voltage, cold). The following applies: for effect on menthol-evoked TRPM8 current at 1 µM / IC50: 500 µM menthol; for effect on cold-evoked TRPM8 current: cold 16 °C; for IC50: whole cell, ratio P2/P1, read-out: IC50, TRPM8 activity evoked by menthol (patch clamp); for Hill coefficient nH: dose-response against 500 µM menthol. In kind it is cell-based. The protocol: As depicted in Fig. 3, perfusion with 500 µM menthol activated a large TRPM8 inward current at −60 mV (Fig. 3, control). […] The extent of TRPM8 activity shown in Fig. 3 corresponds to the ratio of channel activity between the second (P2) and the first (P1) pulses (ratio P2/P1) of menthol in order to take into account the channel desensitization (supplementary information Fig. 3S)[36], [37].
Left: Representative whole-cell voltage clamp recordings from TRPM8-expressing HEK-CR1 cells and compound 41 (A) and 45 (B). Voltage was held at −60 mV. Pre-application of compounds (20 s) was followed by co-application with 500 µM menthol (Control) for 20s. Current traces of different colours denote the different concentrations of compounds tested. Right: Dose response of compound 41 (A, red), 45 (B, blue) TRPM8 blocked activity. Solid line depicts the fitting to a Hill equation. Data are given as mean ± SEM, with n > 4 cells per data point.
Figure 4 Compound 41 abolished the voltage-evoked response on TRPM8. (A) Representative families of TRPM8 ionic currents in absence (Control) or presence of 1 μM 41 elicited with a voltage step protocol consisting of 200-ms depolarizing pulses from −60 to +120 mV in steps of 20 mV (inset). Holding potential −60 mV, time between pulses = 5s. (B) I-V relationships of TRPM8 channel activity in the absence (black) and presence of 1 µM 41 (red).
Figure 5 Compound 41 abolished the cold thermal activity response on TRPM8. Left: Representative families of TRPM8 ionic currents at +80mV in absence (A) or presence of 1µM 41 (B) activated by cold temperature (16 °C) obtained with a 300-ms ramp from −80 to +80 mV in intervals of 2 s during 3 minutes. Holding potential −60 mV. Right: I-V relationships of TRPM8 channel in basal conditions (a, black line), activated by cold in the absence (b, green line) and presence of 1 µM 41 (c, blue line). (C) Ratio currents between pulse 2 and pulse 1 induced by menthol in the absence (black bar) or in the presence (blue bar) of compound 41.
Electrophysiological recording was carried out 1–3 d after cells seeded. Membrane currents and voltages were recorded by patch clamp using the whole-cell configuration. For whole-cell recordings of HEK-hTRPV1 and HEK-TRPM8 cells, pipette solution contained (in mM) 140 CsCl, 5 EGTA, and 10 HEPES, adjusted to pH 7.2 with CsOH, and bath solution contained (in mM) 140 NaCl, 5 KCl, 2 CaCl2, 2 MgCl2, 5 EGTA, 10 D-glucose, 10 Mannitol and 10 HEPES, adjusted to pH 7.4 with NaOH. In calcium-free bath solution, CaCl2 was replaced with 5mM EGTA. For potassium and sodium recordings, CsCl was substituted by KCl and the pH was adjusted to pH 7.2 with KOH. Patch pipettes were prepared from thin-walled borosilicate glass capillaries (World Precision Instruments, Sarasota, FL, USA), pulled with a horizontal puller (P-97, Sutter Instruments, Novato, CA, USA) to have a tip resistance of 2–4 MΩ when filled with internal solutions. Data were sampled at 10 kHz (EPC10 amplifier with PatchMaster 2.53 software, HEKA Electronics, Lambrecht, Germany) and low-pass filtered at 3 kHz for analysis (PatchMaster 2.53 and GraphPad Prism 5, Graphpad Software, USA). The series resistance was <10 MΩ and to minimize voltage errors was compensated to 60–80%. All measurements were performed at 24–25°C. The temperature was adjusted with a water-cooled Peltier device placed at the inlet of the chamber and controlled by a feedback device (Automatic Temperature Controller TC-324B, Warner Instruments). Cold-sensitivity was investigated with a temperature decrease to 16–18 °C.

The next test concerns the target T2, hTRPV1 (Homo sapiens, UniProt Q8NER1).
T2 construct: expressed in transfected cells; host or cells: HEK
As to the kind of experiment: Whole-cell patch clamp in cells expressing hTRPV1. Format: cell-based. The protocol:
Electrophysiological recording was carried out 1-3 d after cells seeded. Membrane currents and voltages were recorded by patch clamp using the whole-cell configuration. […] In calcium-free bath solution, CaCl2 was replaced with 5mM EGTA. For potassium and sodium recordings, CsCl was substituted by KCl and the pH was adjusted to pH 7.2 with KOH. Patch pipettes were prepared from thin-walled borosilicate glass capillaries (World Precision Instruments, Sarasota, FL, USA), pulled with a horizontal puller (P-97, Sutter Instruments, Novato, CA, USA) to have a tip resistance of 2-4 MΩ when filled with internal solutions. Data were sampled at 10 kHz (EPC10 amplifier with PatchMaster 2.53 software, HEKA Electronics, Lambrecht, Germany) and low-pass filtered at 3 kHz for analysis (PatchMaster 2.53 and GraphPad Prism 5, Graphpad Software, USA). The series resistance was <10 MΩ and to minimize voltage errors was compensated to 60-80%. All measurements were performed at 24-25°C. The temperature was adjusted with a water-cooled Peltier device placed at the inlet of the chamber and controlled by a feedback device (Automatic Temperature Controller TC-324B, Warner Instruments). Cold-sensitivity was investigated with a temperature decrease to 16-18 °C. page 44: Figure 1S. […] A) […] compound 41 (blue line). Pre-application of compound (20 s) was followed by coapplication with 500 […] 41. […] C) […] Pre-application of […] Voltage was held at -60 mV for all the experiments. […] (1 picture or pasted object on this page, not shown here)
A general note: The patch-clamp technique gives a direct electrical read-out from membranes.

The structures appear in SMILES notation. Where “and” joins values, the source holds several entries; their conditions need not be identical. Equal values may be shown once.

T2 sequence (Q8NER1 whole entry): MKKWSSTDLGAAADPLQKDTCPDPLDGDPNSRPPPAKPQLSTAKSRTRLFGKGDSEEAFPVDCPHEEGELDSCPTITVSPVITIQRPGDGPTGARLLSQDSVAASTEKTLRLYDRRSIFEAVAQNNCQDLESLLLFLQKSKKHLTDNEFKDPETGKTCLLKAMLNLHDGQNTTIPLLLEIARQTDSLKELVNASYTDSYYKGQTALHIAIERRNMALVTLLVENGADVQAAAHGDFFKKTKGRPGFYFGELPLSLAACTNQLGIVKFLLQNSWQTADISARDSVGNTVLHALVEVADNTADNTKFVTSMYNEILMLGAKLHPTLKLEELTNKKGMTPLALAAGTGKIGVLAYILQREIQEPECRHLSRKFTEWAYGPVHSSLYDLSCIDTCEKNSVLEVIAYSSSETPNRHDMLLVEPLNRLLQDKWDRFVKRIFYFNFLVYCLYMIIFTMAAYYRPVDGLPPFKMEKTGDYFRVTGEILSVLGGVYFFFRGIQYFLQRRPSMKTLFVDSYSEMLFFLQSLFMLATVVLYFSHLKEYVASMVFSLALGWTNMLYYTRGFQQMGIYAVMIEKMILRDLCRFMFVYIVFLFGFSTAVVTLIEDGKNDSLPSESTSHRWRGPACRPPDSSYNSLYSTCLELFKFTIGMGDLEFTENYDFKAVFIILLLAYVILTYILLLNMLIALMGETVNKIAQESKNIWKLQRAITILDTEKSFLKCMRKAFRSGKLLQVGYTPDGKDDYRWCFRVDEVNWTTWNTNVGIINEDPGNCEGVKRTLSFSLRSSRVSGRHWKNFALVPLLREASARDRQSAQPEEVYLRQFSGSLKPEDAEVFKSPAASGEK
T1 sequence (Q8R455 whole entry): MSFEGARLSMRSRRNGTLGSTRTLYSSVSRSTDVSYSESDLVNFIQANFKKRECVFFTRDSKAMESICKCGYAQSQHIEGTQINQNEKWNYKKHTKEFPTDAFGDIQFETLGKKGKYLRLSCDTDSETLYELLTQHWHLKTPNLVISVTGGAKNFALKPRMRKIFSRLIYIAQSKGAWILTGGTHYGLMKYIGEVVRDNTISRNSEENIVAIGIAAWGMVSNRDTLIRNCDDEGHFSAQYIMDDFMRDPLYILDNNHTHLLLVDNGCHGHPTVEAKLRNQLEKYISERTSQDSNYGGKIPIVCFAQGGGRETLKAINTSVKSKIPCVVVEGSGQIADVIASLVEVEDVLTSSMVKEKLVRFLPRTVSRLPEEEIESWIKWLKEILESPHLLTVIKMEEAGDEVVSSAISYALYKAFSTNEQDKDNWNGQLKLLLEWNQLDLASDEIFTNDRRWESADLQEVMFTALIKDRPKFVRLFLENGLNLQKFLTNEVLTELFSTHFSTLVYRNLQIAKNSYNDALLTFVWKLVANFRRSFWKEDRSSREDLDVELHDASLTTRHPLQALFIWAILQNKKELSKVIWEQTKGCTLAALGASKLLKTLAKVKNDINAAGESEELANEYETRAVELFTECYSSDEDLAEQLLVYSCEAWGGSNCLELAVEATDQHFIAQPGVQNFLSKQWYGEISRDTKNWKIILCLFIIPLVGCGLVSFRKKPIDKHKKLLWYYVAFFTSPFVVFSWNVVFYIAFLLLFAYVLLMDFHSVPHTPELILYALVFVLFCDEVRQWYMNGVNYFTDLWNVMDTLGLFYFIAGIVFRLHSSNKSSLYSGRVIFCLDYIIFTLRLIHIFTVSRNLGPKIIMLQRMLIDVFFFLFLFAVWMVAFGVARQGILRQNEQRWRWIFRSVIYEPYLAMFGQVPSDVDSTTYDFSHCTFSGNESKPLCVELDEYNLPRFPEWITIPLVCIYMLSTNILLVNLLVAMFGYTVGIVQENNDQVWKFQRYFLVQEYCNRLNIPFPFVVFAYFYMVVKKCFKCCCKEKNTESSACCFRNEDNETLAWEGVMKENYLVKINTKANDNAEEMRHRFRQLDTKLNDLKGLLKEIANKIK

As to `CC1C(=O)N(CC[C@H](NC(=O)OC(C)(C)C)C(=O)OCc2ccccc2)C1(Cc1ccccc1)C(=O)OCc1ccccc1` (stereo partly drawn) [Compound 45, 4R,S-Benzyl-4-benzyloxycarbonyl-1-[(3′S-benzyloxycarbonyl-3′-tert-butoxycarbonylamino)prop-1′-yl]-(3R,S)-methyl-2-oxoazetidine], at TRPM8 (1 µM compound), the “effect on voltage-evoked TRPM8 outward currents” value is on record as “reduce significantly”, the “effect on menthol-evoked TRPM8 current at 1 µM” value is reported as “almost totally absence of current” and the “effect on cold-evoked TRPM8 current” value is listed as “reduce significantly”. For the same compound, on TRPM8 (−60 mV), the IC50 was 82.9 nM and 83 nM; the “Hill coefficient nH” value is −1.1 ± 0.2. The same compound had an IC50 at hTRPV1 of more than 1000 nM.
Take `CC(C)(C)OC(=O)N[C@@H](CCN1C(=O)CC1(Cc1ccccc1)C(=O)OCc1ccccc1)C(=O)OCc1ccccc1` (stereo partly drawn) [Compound 41, 4R,S-Benzyl-4-benzyloxycarbonyl-1-[(3′S-benzyloxycarbonyl-3-tert-butoxycarbonylamino-3′-benzyloxycarbonyl)prop-1′-yl]-2-oxoazetidine]: on TRPM8 (1 µM compound), the “effect on menthol-evoked TRPM8 current at 1 µM” value is given as “almost totally absence of current” and the “effect on cold-evoked TRPM8 current” value is listed as “significant decrease in the current intensity”. At TRPM8 (1 µM compound, depolarizing voltage +120 mV), the “reduction of voltage-mediated TRPM8 activity” value turned out to be 90 ± 2%. The “agonist activity (activation) on TRPM8” value at TRPM8 (1 µM compound, −60 mV) is “did not produce activation”. Further, the “reversibility of TRPM8 block” value at TRPM8 (1 µM, menthol pulse four minutes after removal of compound) is given as “reversible”. Also, on TRPM8 (−60 mV), the IC50 is 46 nM and the “Hill coefficient nH” value was −1.5 ± 0.3. Further, the half-inhibitory concentration (IC50) against hTRPV1 is more than 1000 nM. Also, the “agonist activity (activation) on TRPV1” value at hTRPV1 (1 µM compound, −60 mV) is listed as “did not produce activation”.

The term IC50 denotes the concentration that inhibits the measured activity by half.
